Results from PMC11662536, “Targeting SARS-CoV-2 main protease: a comprehensive approach using advanced virtual screening, molecular dynamics, and in vitro validation” (Virology Journal, 2024).
Where “and” joins values, the source holds several entries; their conditions need not be identical. Identical values can stand only once.

Target: SARS-CoV-2_WT Mpro (Severe acute respiratory syndrome coronavirus 2, UniProt P0DTD1)
Assay: biochemical
Conditions: 25 nM SARS-2 Mpro, 25 μM substrate, 30 min pre-incubation

| Structure (SMILES) | IC50 |
| --- | --- |
| Oc1ccc2c(c1)oc1c(-c3ccc(O)c(O)c3)c3c(O)nn(C4CCCCC4)c3nc12 [ID11, Oc1ccc2c(c1)oc1c(-c3ccc(O)c(O)c3)c3c(O)nn(C4CCCCC4)c3nc12] | < 100 µM and 54.4 µM |
| Oc1ccc(-c2c3oc4c(O)c(O)ccc4c3nc3c2c(O)nn3C2CCCCCC2)cc1O [ID14, Oc1ccc(-c2c3oc4c(O)c(O)ccc4c3nc3c2c(O)nn3C2CCCCCC2)cc1O] | < 100 µM |
| Oc1ccc(-c2c3oc4cc(O)ccc4c3nc3c2c(O)nn3C2CCCCCC2)cc1 [ID18, Oc1ccc(-c2c3oc4cc(O)ccc4c3nc3c2c(O)nn3C2CCCCCC2)cc1] | < 100 µM |
| Cc1c(O)ccc2c1oc1c(-c3ccc(O)c(O)c3)c3c(O)nn(C4CCCCC4)c3nc12 [ID20, Cc1c(O)ccc2c1oc1c(-c3ccc(O)c(O)c3)c3c(O)nn(C4CCCCC4)c3nc12] | < 100 µM |
| COc1cc(-c2c3oc4cc(O)ccc4c3nc3c2c(O)nn3C2CCCCC2)cc(O)c1O [ID32, COc1cc(-c2c3oc4cc(O)ccc4c3nc3c2c(O)nn3C2CCCCC2)cc(O)c1O] | < 100 µM |
| Oc1ccc(-c2c3oc4c(O)c(O)ccc4c3nc3c2c(O)nn3C2CCCCC2)cc1Cl [ID35, Oc1ccc(-c2c3oc4c(O)c(O)ccc4c3nc3c2c(O)nn3C2CCCCC2)cc1Cl] | < 100 µM and 59.4 µM |
| COc1cc(-c2c3oc4cc(O)ccc4c3nc3c2c(O)nn3C2CCCCCCC2)cc(O)c1O [ID41, COc1cc(-c2c3oc4cc(O)ccc4c3nc3c2c(O)nn3C2CCCCCCC2)cc(O)c1O] | < 100 µM |
